# Source: US20190119649A1, “METHODS FOR GENERATING AUGMENTED STEM CELL-DERIVED BETA CELLS AND USES THEREOF” (President and Fellows of Harvard College, priority 2014, published 2019)
# Key:
# SC-β cells [1] = assay: Glucose stimulated insulin secretion stimulation index of SC-β cells; format: cell-based, human; conditions: R428 together with antioxidant N-acetylcysteine; FIG. 1B and 1C
# Procedure: Stimulation index=[insulin@20 mM glucose]/[insulin@2 mM glucose]. Relative Stim Index=Stim Index/Stim Index of Control.
# SC-β cells [2] = conditions: R428 together with antioxidant N-acetylcysteine; FIG. 1A
# Text: FIG. 2C is a schematic depicting an overview of an exemplary method for generating augmented SC-β cells in accordance with the present invention.
# In accordance with aspects of the present invention, the period of time comprises between 7 days and 21 days. […] In accordance with aspects of the present invention, the period of time comprises 3 days, 4 days, 5 days, 6 days, 7 days, 8 days, 9 days, 10 days, 11 days, 12 days, 13 days, 14 days, 15 days, 16 days, 17 days, 18 days, 19 days, 20 days, 21 days, 22 days, 23 days, 24 days, 25 days, 26 days, 27 days, 28 days, 29 days, or 30 days or longer.
smiles,measurement,setting,value
Nc1nc(Nc2ccc3c(c2)CC[C@@H](N2CCCC2)CC3)nn1-c1cc2c(nn1)-c1ccccc1CCC2 [Compound R428],Stimulation index ([insulin@20 mM glucose]/[insulin@2 mM glucose]) relative to SC-β cells generated without AXL inhibitor,SC-β cells [1],greater stimulation index
same,MAFA gene expression relative to SC-β cells generated without AXL inhibitor and antioxidant,SC-β cells [2],increased MAFA gene expression
